This note sets out measurements from patent US8987250B2 (Gilead Sciences, Inc., priority 2012, dated 2015).

A word on the EC50: it is the concentration at which the effect is half-maximal.

This assay deals with HIV-IIIb. Nature of the assay: Test A: Antiviral Assay in MT4 Cells. The following applies: Human immunodeficiency virus 1, IIIB, MT4, 120 h, Table 2; MT-4 cells infected with HIV-IIIb, 5 days of incubation, CellTiter-Glo; read-out: EC50. The assay is classed as cell-based. The procedure, abridged:
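Read-out: CellTiter-Glo chemiluminescence after 5-day incubation at 37 °C. Compounds tested as 3-fold serial dilutions (10 concentrations, quadruplicate) in RPMI 1640 with 10% FBS, on MT-4 cells pre-infected at 37 °C with HIV-IIIb at 0.004 m.o.i.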
(In general: ATP-based viability assays read luminescence as a measure of living cells.)

Each structure is given as a SMILES string.

With `Cc1cc2nc(-c3ccnc(-c4ccc5[nH]ncc5c4C)c3)sc2c(-c2ccc(Cl)cc2)c1[C@H](OC(C)(C)C)C(=O)O` [Compound 421], the EC50 came out at 0.02 µM.

Turning to `Cc1cc2nc(-c3ccnc(-c4cc(C)c5[nH]ncc5c4)c3)sc2c(-c2ccc(Cl)cc2)c1[C@H](OC(C)(C)C)C(=O)O` [Compound 422], the EC50 was 0.032 µM.

With `Cc1cc2nc(-c3ccc4cnccc4c3)sc2c(-c2ccc(Cl)cc2)c1[C@H](OC(C)(C)C)C(=O)O` [Compound 427], the 50% effective concentration (EC50) was found to be 0.014 µM.

For `Cc1cc2nc(-c3ccc4c(c3)c(-c3cnccn3)nn4C)sc2c(-c2ccc(Cl)cc2)c1[C@H](OC(C)(C)C)C(=O)O` [Compound 428], the EC50 was 0.007 µM.

In the case of `Cc1cc2nc(-c3ccc4scnc4c3)sc2c(-c2ccc(Cl)cc2)c1[C@H](OC(C)(C)C)C(=O)O` [Compound 429], the EC50 turned out to be 0.043 µM.

As for `Cc1cc2nc(-c3ccc4cnn(C)c4c3)sc2c(-c2ccc(Cl)cc2)c1[C@H](OC(C)(C)C)C(=O)O` [Compound 430], the 50% effective concentration (EC50) turned out to be 0.029 µM.

Consider `Cc1cc2nc(N3Cc4cccnc4C3)sc2c(-c2ccc(Cl)cc2)c1[C@H](OC(C)(C)C)C(=O)O` [Compound 431], for which the half-maximal effective concentration (EC50) is 0.018 µM.

For the compound `Cc1cc2nc(N3Cc4ccncc4C3)sc2c(-c2ccc(Cl)cc2)c1[C@H](OC(C)(C)C)C(=O)O` [Compound 432], the half-maximal effective concentration (EC50) stood at 0.018 µM.

Take `Cc1cc2nc(N3CCc4cccnc4C3)sc2c(-c2ccc(Cl)cc2)c1[C@H](OC(C)(C)C)C(=O)O` [Compound 433]: the EC50 turned out to be 0.038 µM.

Consider `Cc1cc2nc(N3CCc4ccncc4C3)sc2c(-c2ccc(Cl)cc2)c1[C@H](OC(C)(C)C)C(=O)O` [Compound 434], for which the concentration giving a half-maximal response (EC50) was 0.042 µM.

For `Cc1cc2nc(N3CCc4cnccc4C3)sc2c(-c2ccc(Cl)cc2)c1[C@H](OC(C)(C)C)C(=O)O` [Compound 435], the concentration giving a half-maximal response (EC50) amounted to 0.039 µM.

Consider `Cc1cc2nc(N3Cc4ccccc4C(F)(F)C3)sc2c(-c2ccc(Cl)cc2)c1[C@H](OC(C)(C)C)C(=O)O` [Compound 436], for which the EC50 worked out at 0.067 µM.

On to `Cc1cc2nc(N3CC[C@@H]4CCCC[C@@H]4C3)sc2c(-c2ccc(Cl)cc2)c1[C@H](OC(C)(C)C)C(=O)O` [Compound 437], for which the concentration giving a half-maximal response (EC50) is 0.309 µM.

Take `Cc1cc2nc(N3CC[C@H]4CCCC[C@@H]4C3)sc2c(-c2ccc(Cl)cc2)c1[C@H](OC(C)(C)C)C(=O)O` [Compound 438]: the EC50 was 0.258 µM.

With `Cc1cc2nc(N3Cc4ccccc4C3)sc2c(-c2ccc(Cl)cc2)c1[C@H](OC(C)(C)C)C(=O)O` [Compound 439], the EC50 was determined as 0.02 µM.

Consider `Cc1cc2nc(N3CCc4nn(C)c(C)c4C3)sc2c(-c2ccc(Cl)cc2)c1[C@H](OC(C)(C)C)C(=O)O` [Compound 440], for which the EC50 stood at 0.011 µM.

On to `Cc1cc2nc(N3CCc4c(c(C)nn4C)C3)sc2c(-c2ccc(Cl)cc2)c1[C@H](OC(C)(C)C)C(=O)O` [Compound 441], for which the EC50 is 0.004 µM.

`Cc1cc2nc(N3CCn4c(C)nnc4C3)sc2c(-c2ccc(Cl)cc2)c1[C@H](OC(C)(C)C)C(=O)O` [Compound 442]: the EC50 worked out at 1.16 µM.

For `Cc1cc2nc(-c3ccnc(-c4ccc5c(c4)c(C)nn5C)c3)sc2c(-c2ccc(Cl)cc2)c1[C@H](OC(C)(C)C)C(=O)O` [Compound 443], the 50% effective concentration (EC50) came out at 0.024 µM.

As to `CNc1nn(C)c2ccc(-c3nc4cc(C)c([C@H](OC(C)(C)C)C(=O)O)c(-c5ccc(Cl)cc5)c4s3)cc12` [Compound 444], the half-maximal effective concentration (EC50) is 0.01 µM.

For `CNc1nn(C)c2cc(-c3nc4cc(C)c([C@H](OC(C)(C)C)C(=O)O)c(-c5ccc(Cl)cc5)c4s3)ccc12` [Compound 445], the EC50 amounted to 0.005 µM.

`Cc1cc2nc(-c3ccc4c(c3)OCCO4)sc2c(-c2ccc(Cl)cc2)c1[C@H](OC(C)(C)C)C(=O)O` [Compound 446]: the EC50 was 0.173 µM.

In the case of `Cc1cc2nc(-c3ccnc(-n4ccc5ncccc5c4=O)c3)sc2c(-c2ccc(Cl)cc2)c1[C@H](OC(C)(C)C)C(=O)O` [Compound 447], the EC50 is 0.005 µM.

`Cc1cc2nc(-c3ccnc(-c4ccc5ccn(C)c(=O)c5c4)c3)sc2c(-c2ccc(Cl)cc2)c1[C@H](OC(C)(C)C)C(=O)O` [Compound 448]: the EC50 is 0.009 µM.

Take `Cc1cc2nc(-c3ccnc(-c4ccc5cc[nH]c(=O)c5c4)c3)sc2c(-c2ccc(Cl)cc2)c1[C@H](OC(C)(C)C)C(=O)O` [Compound 449]: the EC50 is 0.03 µM.

Consider `Cc1cc2nc(-n3ccc4cnccc4c3=O)sc2c(-c2ccc(Cl)cc2)c1[C@H](OC(C)(C)C)C(=O)O` [Compound 450], for which the 50% effective concentration (EC50) is 0.025 µM.

`COc1ccc2ccc(-c3cc(-c4nc5cc(C)c([C@H](OC(C)(C)C)C(=O)O)c(-c6ccc(Cl)cc6)c5s4)ccn3)cc2n1` [Compound 451]: the concentration giving a half-maximal response (EC50) turned out to be 0.086 µM.

Regarding `Cc1cc2nc(-c3ccnc(-c4ccc5ccc(=O)n(C)c5c4)c3)sc2c(-c2ccc(Cl)cc2)c1[C@H](OC(C)(C)C)C(=O)O` [Compound 452], the EC50 turned out to be 0.016 µM.

Regarding `Cc1cc2nc(-c3ccnc(-c4ccc5ccc(=O)[nH]c5c4)c3)sc2c(-c2ccc(Cl)cc2)c1[C@H](OC(C)(C)C)C(=O)O` [Compound 453], the EC50 amounted to 0.036 µM.

As to `Cc1cc2nc(-c3ccnc(-c4cnc5c(c4)n(C)c(=O)n5C)c3)sc2c(-c2ccc(Cl)cc2)c1[C@H](OC(C)(C)C)C(=O)O` [Compound 454], the half-maximal effective concentration (EC50) was 0.018 µM.

Turning to `Cc1cc2nc(-c3ccc4c(c3)c(=O)n(C)n4C)sc2c(-c2ccc(Cl)cc2)c1[C@H](OC(C)(C)C)C(=O)O` [Compound 455], the EC50 was 0.017 µM.

Turning to `Cc1cc2nc(-c3ccnc(N4CC5CCCCN5C4=O)c3)sc2c(-c2ccc(Cl)cc2)c1[C@H](OC(C)(C)C)C(=O)O` (stereo partly shown) [Compound 456], the 50% effective concentration (EC50) is 0.02 µM.

For the compound `COc1ccc2cc(-c3cc(-c4nc5cc(C)c([C@H](OC(C)(C)C)C(=O)O)c(-c6ccc(Cl)cc6)c5s4)ccn3)ccc2n1` [Compound 457], the EC50 stood at 0.096 µM.

Take `Cc1cc2nc(-c3ccnc(-n4ccc5ccncc5c4=O)c3)sc2c(-c2ccc(Cl)cc2)c1[C@H](OC(C)(C)C)C(=O)O` [Compound 458]: the EC50 stood at 0.005 µM.

On to `Cc1cc2nc(-c3ccnc(-c4ccc5[nH]c(=O)ccc5c4)c3)sc2c(-c2ccc(Cl)cc2)c1[C@H](OC(C)(C)C)C(=O)O` [Compound 459], for which the EC50 was 0.028 µM.

As for `Cc1cc2nc(-c3ccnc(-n4ccn5cccc5c4=O)c3)sc2c(-c2ccc(Cl)cc2)c1[C@H](OC(C)(C)C)C(=O)O` [Compound 460], the EC50 worked out at 0.031 µM.

`Cc1cc2nc(-c3ccnc(-c4ccc5c(c4)c(=O)n(C)n5C)c3)sc2c(-c2ccc(Cl)cc2)c1[C@H](OC(C)(C)C)C(=O)O` [Compound 461]: the EC50 turned out to be 0.014 µM.

With `Cc1cc2nc(-c3ccnc(-n4ccc5ccccc5c4=O)c3)sc2c(-c2ccc(Cl)cc2)c1[C@H](OC(C)(C)C)C(=O)O` [Compound 462], the EC50 stood at 0.042 µM.

Regarding `Cc1cc2nc(-c3ccnc(-c4ccc5c(c4)[nH]c(=O)n5C)c3)sc2c(-c2ccc(Cl)cc2)c1[C@H](OC(C)(C)C)C(=O)O` [Compound 463], the concentration for a half-maximal effect (EC50) was found to be 0.052 µM.

On to `CCC(CC)N1CCN(c2nccc(-c3nc4cc(C)c([C@H](OC(C)(C)C)C(=O)O)c(-c5ccc(Cl)cc5)c4s3)n2)CC1` [Compound 464, (S)-2-tert-butoxy-2-(7-(4-chlorophenyl)-5-methyl-2-(2-(4-(pentan-3-yl)piperazin-1-yl)pyrimidin-4-yl)benzo[d]thiazol-6-yl)acetic acid], for which the concentration for a half-maximal effect (EC50) is 0.012 µM.

As for `Cc1cc2nc(-c3ccnc(N4CCN(C(C)(C)C)CC4)n3)sc2c(-c2ccc(Cl)cc2)c1[C@H](OC(C)(C)C)C(=O)O` [Compound 465, (S)-2-tert-butoxy-2-(2-(2-(4-tert-butylpiperazin-1-yl)pyrimidin-4-yl)-7-(4-chlorophenyl)-5-methylbenzo[d]thiazol-6-yl)acetic acid], the EC50 came to 0.002 µM.

Regarding `Cc1cc2nc(-c3ccnc(N4CCN(C(C)C)C[C@H]4C)n3)sc2c(-c2ccc(Cl)cc2)c1[C@H](OC(C)(C)C)C(=O)O` [Compound 466, (S)-2-tert-butoxy-2-(7-(4-chlorophenyl)-2-(2-((R)-4-isopropyl-2-methylpiperazin-1-yl)pyrimidin-4-yl)-5-methylbenzo[d]thiazol-6-yl)acetic acid], the EC50 turned out to be 0.005 µM.

On to `Cc1cc2nc(-c3ccnc(N4CCN(C)[C@@H](C)C4)n3)sc2c(-c2ccc(Cl)cc2)c1[C@H](OC(C)(C)C)C(=O)O` [Compound 468, (S)-2-tert-butoxy-2-(7-(4-chlorophenyl)-2-(2-((S)-3,4-dimethylpiperazin-1-yl)pyrimidin-4-yl)-5-methylbenzo[d]thiazol-6-yl)acetic acid], for which the half-maximal effective concentration (EC50) came out at 0.008 µM.

Consider `Cc1cc2nc(-c3ccnc(N4CCN(C)[C@H](C)C4)n3)sc2c(-c2ccc(Cl)cc2)c1[C@H](OC(C)(C)C)C(=O)O` [Compound 469, (S)-2-tert-butoxy-2-(7-(4-chlorophenyl)-2-(2-((R)-3,4-dimethylpiperazin-1-yl)pyrimidin-4-yl)-5-methylbenzo[d]thiazol-6-yl)acetic acid], for which the concentration giving a half-maximal response (EC50) is 0.008 µM.

`Cc1cc2nc(-c3ccnc(N4CCN(C(C)C)[C@@H](C)C4)n3)sc2c(-c2ccc(Cl)cc2)c1[C@H](OC(C)(C)C)C(=O)O` [Compound 470, (S)-2-tert-butoxy-2-(7-(4-chlorophenyl)-2-(2-((S)-4-isopropyl-3-methylpiperazin-1-yl)pyrimidin-4-yl)-5-methylbenzo[d]thiazol-6-yl)acetic acid]: the EC50 is 0.003 µM.

On to `Cc1cc2nc(-c3ccnc(N4CCN(C(C)C)[C@H](C)C4)n3)sc2c(-c2ccc(Cl)cc2)c1[C@H](OC(C)(C)C)C(=O)O` [Compound 471, (S)-2-tert-butoxy-2-(7-(4-chlorophenyl)-2-(2-((R)-4-isopropyl-3-methylpiperazin-1-yl)pyrimidin-4-yl)-5-methylbenzo[d]thiazol-6-yl)acetic acid], for which the 50% effective concentration (EC50) came to 0.003 µM.
